We go through 14 compounds from PubChem BioAssay AID248 (DTP/NCI, 2004).

The test has as its system L1210 leukemia ip in BDF1 mice, survival T/C. Kind of test: NCI In Vivo Anticancer Drug Screen. Data for tumor model L1210 Leukemia (intraperitoneal) in B6D2F1 (BDF1) mice. The following applies: endpoint: mean survival time, higher = longer survival. The gist of the method:
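Tumor was transplanted into mice, which were then dosed with test compound or vehicle alone. Survival was recorded for each group, and the treated figure was expressed relative to the control figure.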

Setting [1] is: dose: 100.0 mg/kg/injection, schedule: Q01DX001 (ip), vehicle: saline.
[2] abbreviates: dose: 100.0 mg/kg/injection, schedule: Q04DX003 (ip), vehicle: saline.
The mark [3] stands for this setting: dose: 200.0 mg/kg/injection, schedule: Q01DX001 (ip), vehicle: saline.
The mark [4] stands for this setting: dose: 200.0 mg/kg/injection, schedule: Q01DX009 (ip), vehicle: saline.
Setting [5] is: dose: 400.0 mg/kg/injection, schedule: Q01DX001 (ip), vehicle: saline.
Setting [6] is: dose: 400.0 mg/kg/injection, schedule: Q04DX003 (ip), vehicle: saline.
[7] abbreviates: dose: 100.0 mg/kg/injection, schedule: Q01DX009 (ip), vehicle: Klucel (hydroxypropylcellulose) (HPC).
The mark [8] stands for this setting: dose: 200.0 mg/kg/injection, schedule: Q01DX009 (ip), vehicle: Klucel (hydroxypropylcellulose) (HPC).
Setting [9] is: dose: 400.0 mg/kg/injection, schedule: Q01DX009 (ip), vehicle: Klucel (hydroxypropylcellulose) (HPC).
Setting [10] is: dose: 100.0 mg/kg/injection, schedule: Q04DX003 (ip), vehicle: Klucel (hydroxypropylcellulose) (HPC).
The mark [11] stands for this setting: dose: 200.0 mg/kg/injection, schedule: Q04DX003 (ip), vehicle: Klucel (hydroxypropylcellulose) (HPC).
The mark [12] stands for this setting: dose: 400.0 mg/kg/injection, schedule: Q04DX003 (ip), vehicle: Klucel (hydroxypropylcellulose) (HPC).
Where [13] appears, read: dose: 100.0 mg/kg/injection, schedule: Q01DX001 (ip), vehicle: carboxymethylcellulose (CMC).
Setting [14] is: dose: 200.0 mg/kg/injection, schedule: Q01DX001 (ip), vehicle: carboxymethylcellulose (CMC).
Setting [15] is: dose: 400.0 mg/kg/injection, schedule: Q01DX001 (ip), vehicle: carboxymethylcellulose (CMC).

Several values for one entry are separate records, joined by “and”; a condition that tells them apart may be missing. Equal entries are not always repeated. Inconclusive results and toxic doses are left out.

For `CC1COCC(C)N1C(=O)c1cccnc1` (centres undefined), the T/C was 99 % of control under setting [1]; 101 % of control and 103 % of control (dose: 100.0 mg/kg/injection, schedule: Q01DX009 (ip), vehicle: saline); 96 % of control and 100 % of control (dose: 100.0 mg/kg/injection, schedule: Q04DX002 (ip), vehicle: saline); 100 % of control under setting [2]; 99 % of control under setting [3]; 113 % of control and 114 % of control under setting [4]. Moreover, the T/C runs as follows: (dose: 200.0 mg/kg/injection, schedule: Q04DX002 (ip), vehicle: saline) 107 % of control and 110 % of control; (dose: 200.0 mg/kg/injection, schedule: Q04DX003 (ip), vehicle: saline) 105 % of control; under setting [5], 101 % of control; (dose: 400.0 mg/kg/injection, schedule: Q01DX009 (ip), vehicle: saline) 103 % of control; (dose: 400.0 mg/kg/injection, schedule: Q04DX002 (ip), vehicle: saline) 105 % of control and 110 % of control; under setting [6], 105 % of control.

For the compound `COC(OC(CO)C(O)S(=O)(=O)O)C(O)S(=O)(=O)O` (centres undefined), the T/C (dose: 12.5 mg/kg/injection, schedule: Q03HX008 (ip), vehicle: saline) is 100 % of control; the T/C (dose: 12.5 mg/kg/injection, schedule: Q03HX016 (ip), vehicle: saline) is 97 % of control; the T/C (dose: 12.5 mg/kg/injection, schedule: Q03HX024 (ip), vehicle: saline) was 102 % of control; the T/C (dose: 25.0 mg/kg/injection, schedule: Q03HX008 (ip), vehicle: saline) is 97 % of control; the T/C (dose: 25.0 mg/kg/injection, schedule: Q03HX016 (ip), vehicle: saline) was 102 % of control; the T/C (dose: 25.0 mg/kg/injection, schedule: Q03HX024 (ip), vehicle: saline) was 107 % of control. Besides, the T/C (dose: 35.0 mg/kg/injection, schedule: Q01DX001 (ip), vehicle: saline) was 105 % of control and 114 % of control; the T/C (dose: 35.0 mg/kg/injection, schedule: Q01DX009 (ip), vehicle: saline) was 123 % of control; the T/C (dose: 50.0 mg/kg/injection, schedule: Q01DX009 (sc), vehicle: saline) is 107 % of control; the T/C (dose: 50.0 mg/kg/injection, schedule: Q03HX008 (ip), vehicle: saline) is 117 % of control; the T/C (dose: 50.0 mg/kg/injection, schedule: Q03HX016 (ip), vehicle: saline) is 113 % of control; the T/C (dose: 50.0 mg/kg/injection, schedule: Q03HX024 (ip), vehicle: saline) is 122 % of control. The T/C is, setting by setting: (dose: 70.0 mg/kg/injection, schedule: Q01DX001 (ip), vehicle: saline) 112 % of control and 121 % of control; under setting [1], 244 % of control; (dose: 100.0 mg/kg/injection, schedule: Q01DX009 (oral), vehicle: saline) 107 % of control; (dose: 100.0 mg/kg/injection, schedule: Q01DX009 (sc), vehicle: saline) 115 % of control; (dose: 100.0 mg/kg/injection, schedule: Q03HX008 (ip), vehicle: saline) 152 % of control; (dose: 100.0 mg/kg/injection, schedule: Q03HX024 (ip), vehicle: saline) 167 % of control. For the same compound, the T/C under setting [2] was 122 % of control; the T/C (dose: 140.0 mg/kg/injection, schedule: Q01DX001 (ip), vehicle: saline) was 120 % of control and 121 % of control; the T/C under setting [4] is 151 % of control; the T/C (dose: 200.0 mg/kg/injection, schedule: Q01DX009 (oral), vehicle: saline) is 116 % of control; the T/C (dose: 200.0 mg/kg/injection, schedule: Q01DX009 (sc), vehicle: saline) was 113 % of control; the T/C (dose: 280.0 mg/kg/injection, schedule: Q01DX001 (ip), vehicle: saline) is 124 % of control. Moreover, the T/C was 152 % of control (dose: 280.0 mg/kg/injection, schedule: Q01DX009 (ip), vehicle: saline); 194 % of control under setting [5]; 116 % of control (dose: 400.0 mg/kg/injection, schedule: Q01DX009 (oral), vehicle: saline); 151 % of control under setting [6]; 103 % of control (dose: 800.0 mg/kg/injection, schedule: Q01DX009 (oral), vehicle: saline).

In the case of `C=CCCC(=O)O`, the T/C runs as follows: (dose: 50.0 mg/kg/injection, schedule: Q01DX001 (ip), vehicle: saline with Tween-80) 96 % of control; (dose: 100.0 mg/kg/injection, schedule: Q01DX001 (ip), vehicle: saline with Tween-80) 100 % of control; (dose: 200.0 mg/kg/injection, schedule: Q01DX001 (ip), vehicle: saline with Tween-80) 91 % of control.

For `Oc1ccccc1/C=N/C(O)C(Cl)(Cl)Cl` (centres undefined), the T/C by setting is: (dose: 100.0 mg/kg/injection, schedule: Q04DX002 (ip), vehicle: Klucel (hydroxypropylcellulose) (HPC)) 96 % of control; (dose: 200.0 mg/kg/injection, schedule: Q04DX002 (ip), vehicle: Klucel (hydroxypropylcellulose) (HPC)) 114 % of control; (dose: 400.0 mg/kg/injection, schedule: Q04DX002 (ip), vehicle: Klucel (hydroxypropylcellulose) (HPC)) 107 % of control.

`O=C(Nc1cccc(F)c1)Nc1cc([N+](=O)[O-])ccc1Cl`: the T/C under setting [7] is 97 % of control; the T/C under setting [8] was 94 % of control; the T/C under setting [9] is 94 % of control and 97 % of control.

On to `O=C(NCCCl)NC1CCCCCCCCCCC1`, for which the T/C under setting [7] was 98 % of control; the T/C under setting [10] is 100 % of control; the T/C under setting [8] is 97 % of control; the T/C under setting [11] is 102 % of control; the T/C under setting [9] is 89 % of control; the T/C under setting [12] was 102 % of control.

For the compound `CC(C)(C)OC(=O)NNC(=O)C(CSC(c1ccccc1)c1ccccc1)N1C(=O)c2ccccc2C1=O` (centres undefined), the T/C is, setting by setting: under setting [7], 101 % of control; under setting [10], 90 % of control; under setting [8], 94 % of control; under setting [11], 94 % of control; under setting [9], 101 % of control; under setting [12], 99 % of control.

With `CC(/C=N/Nc1nnc(N/N=C/C(C)=C/c2ccccc2)c2ccccc12)=C\c1ccccc1`, the T/C is, setting by setting: (dose: 50.0 mg/kg/injection, schedule: Q01DX001 (ip), vehicle: carboxymethylcellulose (CMC)) 94 % of control; under setting [13], 102 % of control; under setting [14], 96 % of control; under setting [15], 112 % of control.

With `NS(=O)(=O)c1ccc(CNC(=O)c2ccc(C(=O)NCc3ccc(S(N)(=O)=O)cc3)cc2)cc1`, the T/C under setting [1] is 111 % of control, the T/C under setting [3] is 103 % of control and the T/C under setting [5] was 103 % of control.

`Cc1cccc(C)c1NC(=S)N(CCC#N)Cc1ccccc1`: the T/C was 107 % of control under setting [7], 94 % of control under setting [8] and 96 % of control under setting [9].

For `CC1=NN(c2ccccc2)C(=O)C1N=Nc1ccc(S(=O)(=O)Nc2nnc(C)s2)cc1` (centres undefined), the T/C reads like this: under setting [13], 98 % of control; under setting [14], 106 % of control; under setting [15], 93 % of control.

Consider `Cc1cnc(Cl)c(Br)c1`, for which the T/C is 100 % of control (dose: 100.0 mg/kg/injection, schedule: Q04DX003 (ip), vehicle: saline with Tween-80); 102 % of control (dose: 200.0 mg/kg/injection, schedule: Q04DX003 (ip), vehicle: saline with Tween-80); 98 % of control (dose: 400.0 mg/kg/injection, schedule: Q04DX003 (ip), vehicle: saline with Tween-80).

Consider `CCCNC(c1ccc(C=NC(CC)(CO)CO)cc1)C(Cl)(Cl)Cl` (centres undefined), for which the T/C was 89 % of control under setting [1], 92 % of control under setting [3] and 97 % of control under setting [5].

As for `CCOC(=O)Nc1ccc2c(c1)/C(=N\NC(=S)NC)c1ccccc1-2`, the T/C runs as follows: (dose: 75.0 mg/kg/injection, schedule: Q01DX001 (ip), vehicle: carboxymethylcellulose (CMC)) 90 % of control; (dose: 150.0 mg/kg/injection, schedule: Q01DX001 (ip), vehicle: carboxymethylcellulose (CMC)) 92 % of control; (dose: 300.0 mg/kg/injection, schedule: Q01DX001 (ip), vehicle: carboxymethylcellulose (CMC)) 88 % of control.
